{
  "source": "patent US20230158071A1",
  "about": "“TUMOR COMBINED IMMUNOTHERAPY” (CRAGE medical Co., Limited, priority 2018, published 2023)",
  "system": "E0771-EGFRvIII orthotopic breast cancer xenografts",
  "assay": "Mouse E0771-EGFRvIII orthotopic breast cancer xenografts, olaparib and CAR-T",
  "type": "in vivo, C57BL/6 mice",
  "settings": "olaparib 50 mg/kg i.p. with CAR-T cells",
  "procedure": "(1) Establishment of mouse orthotopic breast cancer model and respective treatment in groups:\nE0771-EGFRvIII cells in the logarithmic growth phase and growing well are collected, inoculating 5×10^5 target cells at right side position of the third pair of accessory breasts of C57BL/6 mice (mice with normal immune system), and the inoculating day is recorded as the first day (i.e., Day 1).\nOn the 10th day after tumor inoculation (i.e. Day 10), mouse T cells are taken and 806-mCD28z-CAR-T cell line is constructed as described in step 1 of this example.\nOn the 14th day after tumor inoculation (i.e., Day 14), the volume of the tumor reaches about 150 mm^3, and the mice are divided in groups:\nThe formula of olaparib stock solution: olaparib is added with 4% DMSO+30% PEG300+66% ddH2O in sequence; a solution of 5 mg/mL is used as the stock solution. […]\n(2) Detection of tumor volume. The tumor volume changes of mice are observed and measured continuously, and recorded three times a week. […]\n(4) Detection of CAR-T copy number in tumor tissues. Tumor tissues of each group of mice are ground to extract DNA, and the sequence of retroviral vector fragment is detected by Taqman probe method to determine the DNA copy number of 806-mCD28z-CAR. […]",
  "data": [
    {"smiles": "O=C(c1cc(Cc2n[nH]c(=O)c3ccccc23)ccc1F)N1CCN(C(=O)C2CC2)CC1", "note": "[olaparib]", "values": [
      {"measurement": "toxicity of combining olaparib with CAR-T cell therapy (from body weights)", "result": "do not cause significant toxicity"}
    ]}
  ]
}
